Compound	melting point [°C]
Nc1nc2cccnc2c2c1nc(CO)n2Cc1cc(-c2ccc(F)cc2)no1	247 to 248
Cc1noc(CN2CCC[C@@H](OCc3cc(C(F)(F)F)cc(C(F)(F)F)c3)[C@H]2c2ccccc2)n1 (relative stereo)	85 to 86
CC(/C=C/C=C(\C)C1=Cc2cc(C(F)(F)F)ccc2OC1)=C\C(=O)O	245 to 246
N#CC(=NNCc1c(Cl)cc(C(F)(F)F)cc1Cl)c1ccc(C#N)cc1	92 to 93
CC(C)(C)NC(=O)[C@@H]1C[C@H](Cl)CN1C(=O)[C@@H](O)[C@H](Cc1ccccc1)NC(=O)[C@H](CC(N)=O)NC(=O)OCc1ccccc1	103 to 107
COCC1OC(=Nc2nccs2)c2c1nc1cc(Cl)ccc1c2O (configuration not stated)	> 270
N#CC(C(=O)C(F)(F)F)c1cc(Cl)cc(Cl)c1Cl (configuration not stated)	160 to 163
O=C(O)c1cc(-c2ccc(C(F)(F)F)cc2)cnc1O	305 to 315
COc1ccc(CNc2nc(-c3ccc(C(=O)O)cc3)nc3sc(C(F)(F)F)cc23)cc1OC	250
COC(=O)c1cc(-c2ccc(SC)cc2)nn(CC(C)C)c1=O	90.4 to 91.4
CC(C)(C)c1cc(-c2cncc(C3SC(N4CCOCC4)=NC3=O)c2)ccc1O (configuration not stated)	231 to 234
CCCN[C@@H](Cc1ccc(OCCNC(=O)c2ccc(-c3ccccn3)cc2)cc1)C(=O)O	242 to 244
CCCn1c(COCC)nc2c(N)nc3ccc(OCCNS(C)(=O)=O)cc3c21	178 to 180
O=C(O)COc1c(-c2cccc(Cl)c2)cc(C(=O)NCCCCCCCCOCc2ccc(Cl)cc2)cc1-c1cccc(Cl)c1	128 to 131
CCOC(=O)Nc1cc([N+](=O)[O-])cc(CC)c1C(=O)OCC	47 to 48
O=C(c1ccc(-n2cccn2)cc1)N1Cc2cccn2Cc2ccccc21	179 to 181
CS(=O)(=O)Nc1ccc2c(c1)C(=O)C(C1CCN(CCc3ccc4nonc4c3)CC1)C2 (configuration not stated)	214 to 217
COc1ccc(C2(C)Cc3cc(O)c(Cl)c(Cl)c3C2=O)cc1 (configuration not stated)	149 to 156
CC1(C)C(=O)NCCN1C(=O)C(Cc1ccccc1)N1C(=O)c2ccccc2C1=O (configuration not stated)	221 to 223
Nc1ccc(-c2ccc(N)cc2Br)c(Br)c1	151 to 153
COC(=O)C1Cc2c(OC)cccc2N1S(=O)(=O)c1ccc(-c2ccc(F)cc2F)cc1 (configuration not stated)	162
CCOC(=O)C1(S(=O)(=O)c2ccc(OC)cc2)CCN(Cc2ccc(-c3cccs3)cc2)CC1	130
O=C(CCCCCCCCC1CO1)OCCOC(=O)CCCCCCCCC1CO1 (configuration not stated)	39 to 40
Cc1oc(-c2ccccc2)nc1COc1ccc(Cn2cc(CCC(=O)O)c(-c3ccccn3)c2)cc1	155 to 156
CNc1cc(SCC(C)O)c(N)cc1[N+](=O)[O-] (configuration not stated)	152

Compound	melting point [°C]
Cc1nc2c3c(c(C(=O)N4CC(O)C4)cc2n1C)CCC1(Cc2ccccc2C1)N3	171 to 172
Cc1nc2ccccc2n1-c1ccc(C#N)cc1	166 to 168
Cc1cccc(NC(=O)NCC(=O)N(CC(=O)N(CC(=O)OC(C)(C)C)c2ccccc2)c2ccccc2)c1	76 to 80
CCCCCCCC/C=C\CCCCCCCC1=C(O)C(=O)C=C(OC)C1=O	69.5 to 70.5
C=CCOc1ccc2ccc(OCC(=O)OC)cc2c1	69 to 70
CC(C)(C)[C@@H](O)c1cccc(-c2ccc(OCCO)cc2)n1	104
O=C(O)C(Cl)(Cl)Cc1ccccc1	173 to 176
Cc1ccc(C(=O)C2Cc3ccccc3C2=O)cc1 (configuration not stated)	103 to 105
COP(=S)(OC)SCc1cc(=O)[nH]c(C(C)C)n1	89 to 93
CC(C)c1ccccc1NC(=N)Nc1cccc2ccccc12	175 to 177
COc1ccc(N2C(=O)c3ccc(Cl)cc3C2CC(=O)O)cc1 (configuration not stated)	250 to 251
Clc1ccc(-c2nnc(Cl)s2)cc1	125 to 127
Cc1nn(-c2c(Cl)cc(C(F)(F)F)cc2Cl)c(C)c1C=O	82 to 83
CC(C)NC1=NS(=O)(=O)c2cc(C(C)(C)C)ccc2N1	128 to 130
O=C(Nc1cccc(OC(F)(F)F)c1)NC1N=C(c2ccccc2F)c2ccccc2N(CC(=O)N2CC3CCC(CC3)C2)C1=O (racemic)	156 to 164
FC(F)(F)c1ccc2[nH]c(-c3csc(Cc4c(Cl)cccc4Cl)n3)nc2c1	187 to 189
N#Cc1cc(F)c(-n2nc(C(F)(F)F)[nH]c2=O)cc1F	51
OCCC(c1ccccc1)c1cc(Br)ccc1OCc1ccccc1 (configuration not stated)	70
O=C(O)c1ccc(N2CC(=O)N(S(=O)(=O)c3ccc(Cl)cc3)C2=O)cc1	271 to 272
COc1cc2c3c(cccc3c1CNC(C)=O)C(=O)N(O)C2=O	237 to 239
CCCCNC(=O)C(c1ccccc1)c1ccccc1	96
COC(=N)c1sc2ccccc2c1O	201
CCC1(CCCCN2CCN(c3cccc(Cl)c3)CC2)C(=O)Nc2ccc(Cl)cc21 (configuration not stated)	139 to 142
CS(=O)(=O)c1ccc(-c2coc3ccc(-c4nnc(N)o4)cc23)cc1	274 to 275
O=C(NCCO)C(=O)NCCO	166 to 169

Compound	melting point [°C]
OCc1cc(Cl)c(F)cn1	50 to 52
N#CCNC(=O)c1nn(C2CCCCO2)cc1NC(=O)c1ccccn1 (configuration not stated)	213 to 214
COc1ccc(C(=O)Nc2cc(C(=O)NCc3ccccc3)ccn2)cc1	165 to 166
CC(=O)Nc1c(C#N)cnn1-c1c(Cl)cc(C(F)(F)F)c(Cl)c1Cl	177 to 178
CN1CC(C(=O)N(Cc2ccc(F)cc2)OCC(=O)O)=C(O)C1=O	147 to 150
COCCOCOc1ccc2cc(C(=O)N(C)Cc3cccc(-c4ccc(Nc5cccc(C(=O)O)c5)cc4)c3)ccc2c1	60
CN(C)CCCOc1ccc(N(C(=O)c2ccc(Cl)cc2)c2ccccc2)cc1	81.5 to 85.5
O=C(O)[C@@H]1CCCN1Cc1cc2cc3c(cc2c2cc(O)ccc12)OCO3	205 to 206
CC=C(C)c1ccc(-c2ccccc2F)cc1	83 to 85
Cc1cc(OCc2ccc(-c3ccc(OC(F)(F)F)cc3)nc2)ccc1OC(C)(C)C(=O)O	146 to 148
Cn1cc(C2=C(c3cn(CCCN)c4ccccc34)C(=O)NC2=O)c2ccccc21	195 to 197
COc1ccc(C(=O)NC(Cc2ccccc2)C(=O)NC(Cc2ccc(O)cc2)C(=O)O)cc1 (configuration not stated)	198 to 200
CCOc1cc(N)c(Cl)cc1C(=O)NC1CCN(CC2CCN(C(=S)N(C)C)CC2)CC1	210 to 212
CC(C=O)Cc1cc(C(C)(C)C)c(O)c(C(C)(C)C)c1 (configuration not stated)	162 to 164
CSC1C(=O)Nc2c(Nc3ccc(Cl)cc3)cccc21 (configuration not stated)	190 to 192
CCOC(=O)c1ccc(/C=C/C(=O)O)cn1	201 to 202
Clc1nc(-c2ccccc2)nc(-c2ccccc2)n1	136 to 138
Cc1nc(-c2cc3cccc(OC[C@@H](O)CN4CCC(c5ccc6ccccc6c5)CC4)c3o2)no1	169 to 170
Fc1ccc(-c2nc(CI)co2)cc1	100 to 102
Fc1ccc(F)c(C(Sc2ccc(Cl)cc2)c2cc(Cl)ncc2Cl)c1 (configuration not stated)	128 to 129
CCOCCCn1ccc(=O)c(OC(=O)NCC(=O)OCC)c1C	84 to 85
COc1ccc(C(OCC2OC(n3cnc4c(=O)[nH]c(NC(=O)Cc5ccc(Br)cc5)nc43)CC2O)(c2ccccc2)c2ccc(OC)cc2)cc1 (configuration not stated)	150 to 155
COC(=O)CCC(=O)Nc1cccc(O)c1	144 to 146
O=C(Nc1cc2ncc(CN3CCCC3)cc2cc1F)c1ccc(-c2ccccc2)cc1F	163 to 164
CC(C)(CCCc1cccnc1)NC(=O)C=CC=C(c1cccc(F)c1)c1cccc(F)c1	135 to 136

Compound	melting point [°C]
COc1ccc(S(=O)(=O)N2C(=O)C(NCCC(=O)OC(C)(C)C)(c3ccccc3OC)c3cc(Cl)ccc32)c(OC)c1 (configuration not stated)	175
CC1Cc2cc3c(cc2C(C=Cc2ccc(F)cc2)=NN1)OCO3 (configuration not stated)	170 to 174
CC(CNS(=O)(=O)C(C)C)c1ccc(NC(=O)CCl)cc1 (configuration not stated)	138
O=P(O)(O)COc1c(Br)cc(-c2c3ccccc3c(Br)c3sc4ccccc4c23)cc1Br	334 to 335
O=[N+]([O-])c1ccc(CO)c(Sc2ccccc2O)c1	131 to 133
CCC(O)(CC)c1ccc(-c2cccc(OCc3ccc(CO)c(CO)c3)c2C)c(C)c1	81 to 82
CCNC(=O)Nc1nc2cc(OCc3ccccc3)cc(Br)c2s1	294
CN1CCC(=C2c3cc(Br)n(C)c3CCn3ccnc32)CC1	179
COC(=O)[C@@H]1CN(C(=O)OC(C)(C)C)CC[C@@H]1C(=O)O (relative stereo)	129 to 136
CCCCCCCCC#CCC#CCC#CCS(=O)(=O)CC(=O)O	132
Nc1cc(C2SCCCS2)c(Cl)cc1F	112 to 115
Cc1c(-c2cccnc2)ccc2c(=O)c(C(=O)O)cn(C3CC3)c12	247
O=c1oc(-c2ccccc2)cc(O)c1S(=O)(=O)Cc1ccccc1	152 to 153
COC(=O)N(CC(=O)Nc1ccc(S(N)(=O)=O)cc1)c1ccccc1	196 to 199
CCCCCCCCCCCCCCCCCCOC(=O)CP(=O)(OCC)OCC	28 to 31
NC(=O)c1cc(Cl)cc(-c2cccc3cc(Cc4cccc(C(F)(F)F)c4)sc23)c1	139 to 140
COC(=O)c1cc2ccc(Cl)c(Cl)c2o1	162
COC(=O)C(Cc1ccccc1)Oc1ccc2cc(-c3cnc(-c4cn(C)c5ccccc45)o3)ccc2c1 (configuration not stated)	58 to 61
c1cnc(N2CCN(Cc3nc4ccccc4[nH]3)CC2)nc1	198 to 200
COc1cc(O)ccc1N	168 to 170
N#Cc1ccc(-c2cc(C#N)cc(Cn3cncn3)c2)cc1	154 to 155
C#CCOC(=O)C1=C(C)NC(C)=C(C(=O)OCC)C1c1ccccc1C(F)(F)F (configuration not stated)	130
